Measurements: publication doi:10.1101/2025.06.07.658027v2 (biorxiv, 2025)
pEC50: −log10 of the molar value.

What was measured:
Assay in all cases: two-electrode voltage clamp, Xenopus oocytes
Type in all cases: cell-based
[1] = biological target: T1, AalbOR2 (Aedes albopictus, UniProt A0ABM1YVB6)
T1 sequence (A0ABM1YVB6 1-376): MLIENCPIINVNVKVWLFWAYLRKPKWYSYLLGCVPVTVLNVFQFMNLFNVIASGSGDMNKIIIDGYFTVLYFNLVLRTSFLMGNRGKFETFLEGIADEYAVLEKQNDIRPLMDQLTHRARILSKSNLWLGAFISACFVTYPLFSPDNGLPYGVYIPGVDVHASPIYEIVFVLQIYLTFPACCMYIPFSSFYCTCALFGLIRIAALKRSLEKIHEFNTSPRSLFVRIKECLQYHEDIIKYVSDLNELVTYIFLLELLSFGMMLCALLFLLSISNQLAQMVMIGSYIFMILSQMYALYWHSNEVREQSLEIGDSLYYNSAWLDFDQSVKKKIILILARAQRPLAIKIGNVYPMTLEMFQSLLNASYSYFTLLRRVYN
T1 sequence (A0ABM1ZN50 1-479 partner): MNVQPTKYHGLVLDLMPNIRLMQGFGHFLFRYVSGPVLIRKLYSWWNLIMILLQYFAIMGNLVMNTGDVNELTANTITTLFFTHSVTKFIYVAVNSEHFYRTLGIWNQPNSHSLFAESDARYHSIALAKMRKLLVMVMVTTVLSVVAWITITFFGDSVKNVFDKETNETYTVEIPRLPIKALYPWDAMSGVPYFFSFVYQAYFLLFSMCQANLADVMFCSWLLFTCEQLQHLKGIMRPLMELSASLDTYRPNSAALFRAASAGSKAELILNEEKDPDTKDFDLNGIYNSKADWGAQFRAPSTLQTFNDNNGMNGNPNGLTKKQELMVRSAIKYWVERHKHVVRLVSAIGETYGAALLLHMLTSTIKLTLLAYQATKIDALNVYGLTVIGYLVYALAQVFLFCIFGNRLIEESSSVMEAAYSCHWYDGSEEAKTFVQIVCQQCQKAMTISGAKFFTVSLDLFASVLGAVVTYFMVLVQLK

[2] = biological target: T2, AalbOR9 (Aedes albopictus, UniProt A0ABM1YMM4)
T2 sequence (A0ABM1YMM4 1-377): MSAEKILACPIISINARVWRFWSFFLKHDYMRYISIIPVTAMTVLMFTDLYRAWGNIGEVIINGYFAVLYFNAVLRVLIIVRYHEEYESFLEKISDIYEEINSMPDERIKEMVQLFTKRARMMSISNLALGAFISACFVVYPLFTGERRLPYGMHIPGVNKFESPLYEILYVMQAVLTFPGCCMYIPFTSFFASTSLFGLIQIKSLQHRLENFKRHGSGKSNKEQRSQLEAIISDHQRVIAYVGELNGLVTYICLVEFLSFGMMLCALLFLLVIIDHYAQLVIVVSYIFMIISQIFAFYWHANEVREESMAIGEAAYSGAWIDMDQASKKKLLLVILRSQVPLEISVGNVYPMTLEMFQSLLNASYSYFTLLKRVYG
T2 sequence (A0ABM1ZN50 1-479 partner): T1 sequence (A0ABM1ZN50 1-479 partner)

[3] = biological target: T3, AalbOR10 (Aedes albopictus, UniProt A0ABM1Y0Z3)
T3 sequence (A0ABM1Y0Z3 1-403): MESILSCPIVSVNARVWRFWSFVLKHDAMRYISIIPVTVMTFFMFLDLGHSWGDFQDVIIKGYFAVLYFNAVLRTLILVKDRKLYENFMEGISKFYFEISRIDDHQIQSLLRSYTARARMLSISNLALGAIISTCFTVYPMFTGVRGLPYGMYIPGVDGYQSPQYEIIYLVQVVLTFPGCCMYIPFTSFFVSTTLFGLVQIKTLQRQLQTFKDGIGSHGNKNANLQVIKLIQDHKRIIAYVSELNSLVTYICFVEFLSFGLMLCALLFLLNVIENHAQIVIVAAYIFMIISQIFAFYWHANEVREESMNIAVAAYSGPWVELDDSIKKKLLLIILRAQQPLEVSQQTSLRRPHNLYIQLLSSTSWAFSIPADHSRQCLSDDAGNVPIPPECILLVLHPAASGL
T3 sequence (A0ABM1ZN50 1-479 partner): T1 sequence (A0ABM1ZN50 1-479 partner)

| SMILES | pEC50 [1] | pEC50 [2] | pEC50 [3] |
| --- | --- | --- | --- |
| c1ccc2[nH]ccc2c1 [indole] | 6.11 | 5.77 | 4.63 |
| Cc1c[nH]c2ccccc12 [skatole] | 5.00 | 7.27 | 5.41 |
